Results published in article PMC12210654, “Palazestrant, a novel oral Complete Estrogen Receptor Antagonist (CERAN) and Selective Estrogen Receptor Degrader (SERD), in patients with ER+/HER2− advanced or metastatic breast cancer: phase 1/2 study results” (Breast Cancer Research : BCR, 2025).
Where “and” joins values, the source holds several entries; their conditions need not be identical. Identical values can stand only once. Entries after “also recorded” stand apart in the source; their conditions may differ.

Key:
[1] = design: method as in PMID 38102750; settings: preclinical; cited from earlier work
[2] = test system: ER+/HER2− advanced or metastatic breast cancer; assay: Antitumor activity: RECIST v1.1 response, CBR, PFS, duration of treatment; assay type: in vivo, human
Source text: Key efficacy end points included assessment of clinical response according to RECIST v1.1; the clinical benefit rate (CBR), defined as the proportion of patients who achieved a complete response (CR), achieved a partial response (PR), or had stable disease (SD) for at least 24 weeks; and progression-free survival (PFS), defined as the time from the date of the first dose to disease progression or death. Biomarker assessments included changes from baseline in circulating tumor DNA (e.g., ESR1 variants) and tumor tissue biomarkers (ERα and Ki67).
All DLT analyses (phase 1a) were performed in patients enrolled in the study during cycle 1 and who either received 75% of the planned palazestrant doses or experienced a DLT during cycle 1. All PK analyses were performed in patients who received at least 1 dose of palazestrant and had adequate postbaseline PK samples for characterization of PK parameters. All safety analyses were performed and PFS assessed in patients who received at least 1 dose of palazestrant. Clinical response (CR or PR) was assessed in patients who received at least 1 cycle of palazestrant, had measurable disease at baseline, and had at least 1 postbaseline tumor assessment. CBR was assessed in patients who received at least 1 cycle of palazestrant, had at least 1 postbaseline tumor assessment, and started their first dose at least 24 weeks before data cutoff. Patients who discontinued study treatment without radiographic progression within 24 weeks from the first dose were not included in the CBR analysis. PK parameters were estimated using conventional noncompartmental methods. For CBR, estimates were accompanied by 2-sided 95% confidence intervals (95% CIs). For PFS, Kaplan–Meier analyses were used to determine medians, event-free rates, and 95% CIs. For all other outcomes, categorical data were analyzed using frequencies and percentages, and continuous data were analyzed using means (standard deviation) or medians (range), as appropriate.

[3] = 60 mg/day, measurable disease (n = 26)
[4] = 120 mg/day, 66 patients with measurable disease
[5] = 120 mg/day, all patients (n = 86)
[6] = 120 mg/day, patients with ESR1 mutation at baseline (n = 36)

For `CCCN1CC(Oc2ccc([C@@H]3c4[nH]c5ccccc5c4C[C@@H](C)N3CC(C)(C)F)cc2)C1` [palazestrant, Palazestrant], the “pharmacokinetics relative to fulvestrant and elacestrant” value [1] is listed as “superior pharmacokinetics”, the “best response observed in dose cohorts” value ([2]; 60 mg/day and 120 mg/day dose cohorts) is listed as “Confirmed partial responses; also recorded: confirmed PR” and the “clinical benefit rate (CBR)” value ([2]; 60 mg/day, 13 patients with cancers with ESR1 mutations) is listed as 23.1%. For the same compound, the “clinical benefit rate (CBR)” value ([2]; 60 mg/day, all evaluable patients (n = 26)) was 19% and 19.2%, the “confirmed PRs” value [2, 3] was 7.7% and the “total PRs” value [2, 3] was 11.5%. The “unconfirmed PR” value [2, 3] was 3.8%, the “patients remaining on treatment for ≥ 1 year” value ([2]; 120 mg/day (n = 86)) was 7.0% and the “patients with a > 30% reduction in tumor size” value ([2]; 120 mg/day, 8/64) was 12.5%. The “patients with a reduction in tumor size (percentage change less than zero)” value ([2]; 120 mg/day, 25/64) was 39.1%, the “patients remaining on treatment for ≥ 6 months” value ([2]; 120 mg/day, 32/86) was 37.2% and the “confirmed PRs” value [2, 4] was 4.5%. The “confirmed PRs including one cPR after the data cutoff date” value [2, 4] was 6.0%, the “total PRs” value [2, 4] was 7.6% and the “unconfirmed PRs” value [2, 4] was 3.0%. For the same compound, the “clinical benefit rate (CBR)” value ([2]; 120 mg/day, all evaluable patients (n = 70)) was 46% and 45.7%, the “6-month PFS rate” value [2, 5] was 39% and the “median progression-free survival (95% CI)” value [2, 5] was 4.8 months. For the same compound, the “CBR in patients who had a reduction in ESR1 mutations” value ([2]; 120 mg/day, ctDNA available, 8/11) was 73%, the “CBR in patients who did not have a reduction in ESR1 mutations” value ([2]; 120 mg/day, ctDNA available, 8/32) was 25% and the “6-month PFS rate” value [2, 6] was 47%. For the same compound, the “median progression-free survival (95% CI)” value [2, 6] was 5.6 months and the “clinical benefit rate (CBR)” value ([2]; 120 mg/day, patients with cancers with ESR1 mutations (n = 29)) was 58.6%.
